Results taken from US12636372B2, “Immolative cell-penetrating complexes for nucleic acid delivery to the lung” (The Board of Trustees of the Leland Stanford Junior …, priority 2019, dated 2026).

Assay: In vitro toxicity assay: MTT proliferation assay
Format: cell-based
Settings: 3 day incubation
Description: FIGS. 3A-3F show the in vitro reporter and toxicity assays.

With `NCCCC[C@H](NCCO)C(=O)O` [hydroxyethyl lysine] the Cellular viability was “not affected”.
